Experimental findings from US9918974B2, “Pyridone derivatives as rearranged during transfection (RET) kinase inhibitors” (GlaxoSmithKline Intellectual Property Development Limited, priority 2014, dated 2018) are described below.

Broadly, the IC50 is the concentration needed to halve the response being measured. Lower therefore signals greater potency.

The target in this test is Human RET kinase (Homo sapiens (Human), UniProt P07949, C634W). Briefly: RET kinase cell-based mechanistic assay (constitutive RET kinase phosphorylation in TT cells). The settings on record: 2 h treatment, phospho-RET ELISA. Here is the method:
RET Kinase Cell-Based Mechanistic Assay
The potency of the compounds of the invention were tested for its ability to inhibit constitutive RET kinase phosphorylation in cell-based assay. TT cells (ATCC CRL-1803), a medullary thyroid cancer cell line with constitutively activated RET kinase, were maintained in 150 cm^2 dishes in F12 Kaighn's medium, 10% fetal bovine serum, 1× Glutamax, 1× non-essential amino acids, 1× Pen/Strep antibiotics at 37° C. in 5% carbon dioxide. 1.0E5 TT cells/well were plated in a 96-well cell culture plate and allowed to adhere overnight. […] Plates were washed 4× with 200 μL of 1×PBS; 0.05% Tween-20, 100 μL of TMB (3,3′,5,5″-tetramethylbenzidine) substrate (Cell Signaling #7004) was added, incubated for 10 minutes at 37° C., 100 μL of Stop solution (Cell Signaling #7002) was added and absorbance read on a spectrophotometer at 450 nm. […]
Background: In an ELISA, binding on a coated surface is turned into a signal by an enzyme label.

Sequence of Human RET kinase (P07949 29-1114 C634W): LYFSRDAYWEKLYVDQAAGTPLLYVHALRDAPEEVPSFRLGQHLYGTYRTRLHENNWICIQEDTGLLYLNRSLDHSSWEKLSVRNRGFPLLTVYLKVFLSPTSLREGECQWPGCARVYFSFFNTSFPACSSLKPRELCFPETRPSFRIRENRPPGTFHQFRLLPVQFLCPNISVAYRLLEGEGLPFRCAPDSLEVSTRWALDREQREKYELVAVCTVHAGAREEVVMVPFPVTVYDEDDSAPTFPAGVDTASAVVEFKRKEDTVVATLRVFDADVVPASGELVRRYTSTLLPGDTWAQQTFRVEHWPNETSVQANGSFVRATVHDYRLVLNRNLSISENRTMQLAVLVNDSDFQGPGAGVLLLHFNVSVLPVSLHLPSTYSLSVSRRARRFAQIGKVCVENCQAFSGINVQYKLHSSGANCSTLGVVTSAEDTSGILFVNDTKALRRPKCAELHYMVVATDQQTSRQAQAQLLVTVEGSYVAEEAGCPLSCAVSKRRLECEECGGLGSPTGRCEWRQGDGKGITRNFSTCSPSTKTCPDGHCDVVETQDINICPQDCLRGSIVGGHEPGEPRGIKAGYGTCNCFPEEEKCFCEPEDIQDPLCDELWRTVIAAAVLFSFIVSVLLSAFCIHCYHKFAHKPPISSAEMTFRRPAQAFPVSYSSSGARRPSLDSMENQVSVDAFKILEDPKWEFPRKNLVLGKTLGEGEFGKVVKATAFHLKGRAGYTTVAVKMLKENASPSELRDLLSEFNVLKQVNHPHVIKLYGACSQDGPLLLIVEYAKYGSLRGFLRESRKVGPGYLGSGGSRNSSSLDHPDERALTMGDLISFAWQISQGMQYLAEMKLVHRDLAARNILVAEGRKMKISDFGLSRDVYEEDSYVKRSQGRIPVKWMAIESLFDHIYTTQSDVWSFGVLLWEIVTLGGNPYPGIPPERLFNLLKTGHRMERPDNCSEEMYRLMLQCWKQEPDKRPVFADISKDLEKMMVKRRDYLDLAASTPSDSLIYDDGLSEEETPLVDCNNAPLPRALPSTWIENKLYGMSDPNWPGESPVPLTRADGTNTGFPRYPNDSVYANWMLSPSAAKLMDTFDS

The compound `CCOc1cc(=O)[nH]cc1-c1ccc(CC(=O)Nc2cc(C(=O)NCCN(C)C)cc(C(F)(F)F)c2)c(F)c1` [Example 1, N-(2-(dimethylamino)ethyl)-3-(2-(4-(4-ethoxy-6-oxo-1,6-dihydropyridin-3-yl)-2-fluorophenyl)acetamido)-5-(trifluoromethyl)benzamide] displayed an IC50 of 10 to 100 nM.

`CCOc1cc(=O)[nH]cc1-c1ccc(CC(=O)Nc2cc(OCCN(C)C)cc(C(F)(F)F)c2)c(F)c1` [Example 2, N-(3-(2-(dimethylamino)ethoxy)-5-(trifluoromethyl)phenyl)-2-(4-(4-ethoxy-6-oxo-1,6-dihydropyridin-3-yl)-2-fluorophenyl)acetamide] registered a half-maximal inhibitory concentration (IC50) of 10 to 100 nM.
